{"source": "patent US9884842B2", "about": "“Combretastatin analogs” (The Board of Trustees of the University of Arkansas, priority 2013, dated 2018)", "key": {"HS 578T": {"test_system": "HS 578T", "experiment": "NCI growth inhibition and cytotoxicity screen, Breast Cancer panel", "conditions": "Homo sapiens"}, "SK-MEL-5": {"test_system": "SK-MEL-5", "experiment": "NCI growth inhibition and cytotoxicity screen, Melanoma panel", "conditions": "Homo sapiens"}, "MCF7": {"test_system": "MCF7", "experiment": "NCI growth inhibition and cytotoxicity screen, Breast Cancer panel", "conditions": "Homo sapiens"}, "A498": {"test_system": "A498", "experiment": "NCI growth inhibition and cytotoxicity screen, Renal Cancer panel", "conditions": "Homo sapiens"}, "SK-MEL-28": {"test_system": "SK-MEL-28", "experiment": "NCI growth inhibition and cytotoxicity screen, Melanoma panel", "conditions": "Homo sapiens"}, "RXF 393": {"test_system": "RXF 393", "experiment": "NCI growth inhibition and cytotoxicity screen, Renal Cancer panel", "conditions": "Homo sapiens"}, "COLO 205": {"test_system": "COLO 205", "experiment": "NCI growth inhibition and cytotoxicity screen, Colon Cancer panel", "conditions": "Homo sapiens"}, "OVCAR-5": {"test_system": "OVCAR-5", "experiment": "NCI growth inhibition and cytotoxicity screen, Ovarian Cancer panel", "conditions": "Homo sapiens"}, "RPMI-8226": {"test_system": "RPMI-8226", "experiment": "NCI growth inhibition and cytotoxicity screen, Leukemia panel", "conditions": "Homo sapiens"}, "MDA-MB-468": {"test_system": "MDA-MB-468", "experiment": "cells", "conditions": "Homo sapiens"}, "MDA-MB-231/ATCC": {"test_system": "MDA-MB-231/ATCC", "experiment": "NCI growth inhibition and cytotoxicity screen, Breast Cancer panel", "conditions": "Homo sapiens"}, "HL-60(TB)": {"test_system": "HL-60(TB)", "experiment": "cells", "conditions": "Homo sapiens"}, "OVCAR-4": {"test_system": "OVCAR-4", "experiment": "NCI growth inhibition and cytotoxicity screen, Ovarian Cancer panel", "conditions": "Homo sapiens"}, "ACHN": {"test_system": "ACHN", "experiment": "NCI growth inhibition and cytotoxicity screen, Renal Cancer panel", "conditions": "Homo sapiens"}, "SNB-75": {"test_system": "SNB-75", "experiment": "NCI growth inhibition and cytotoxicity screen, CNS Cancer panel", "conditions": "Homo sapiens"}, "HCC-2998": {"test_system": "HCC-2998", "experiment": "NCI growth inhibition and cytotoxicity screen, Colon Cancer panel", "conditions": "Homo sapiens"}, "OVCAR-8": {"test_system": "OVCAR-8", "experiment": "NCI growth inhibition and cytotoxicity screen, Ovarian Cancer panel", "conditions": "Homo sapiens"}, "A549/ATCC": {"test_system": "A549/ATCC", "experiment": "NCI growth inhibition and cytotoxicity screen, Lung Cancer panel", "conditions": "Homo sapiens"}, "OVCAR-3": {"test_system": "OVCAR-3", "experiment": "cells", "conditions": "Homo sapiens"}, "NCI-H522": {"test_system": "NCI-H522", "experiment": "NCI growth inhibition and cytotoxicity screen, Lung Cancer panel", "type": "cell-based", "conditions": "Homo sapiens, NCI-H522, Table 1, cell line NCIH522 (Lung Cancer)"}, "DU-145": {"test_system": "DU-145", "experiment": "NCI growth inhibition and cytotoxicity screen, Prostate Cancer panel", "conditions": "Homo sapiens"}, "HOP-62": {"test_system": "HOP-62", "experiment": "NCI growth inhibition and cytotoxicity screen, Lung Cancer panel", "conditions": "Homo sapiens"}, "TK-10": {"test_system": "TK-10", "experiment": "NCI growth inhibition and cytotoxicity screen, Renal Cancer panel", "conditions": "Homo sapiens"}, "UACC-62": {"test_system": "UACC-62", "experiment": "NCI growth inhibition and cytotoxicity screen, Melanoma panel", "conditions": "Homo sapiens"}, "T-47D": {"test_system": "T-47D", "experiment": "NCI growth inhibition and cytotoxicity screen, Breast Cancer panel", "conditions": "Homo sapiens, T47D"}, "MDA-MB-435": {"test_system": "MDA-MB-435", "experiment": "NCI growth inhibition and cytotoxicity screen, Melanoma panel", "conditions": "Homo sapiens"}, "SK-MEL-2": {"test_system": "SK-MEL-2", "experiment": "NCI growth inhibition and cytotoxicity screen, Melanoma panel", "conditions": "Homo sapiens"}, "SF-539": {"test_system": "SF-539", "experiment": "NCI growth inhibition and cytotoxicity screen, CNS Cancer panel", "conditions": "Homo sapiens"}, "HOP-92": {"test_system": "HOP-92", "experiment": "NCI growth inhibition and cytotoxicity screen, Lung Cancer panel", "conditions": "Homo sapiens"}, "PC-3": {"test_system": "PC-3", "experiment": "NCI growth inhibition and cytotoxicity screen, Prostate Cancer panel", "conditions": "Homo sapiens"}, "MOLT-4": {"test_system": "MOLT-4", "experiment": "NCI growth inhibition and cytotoxicity screen, Leukemia panel", "conditions": "Homo sapiens"}}}
{"smiles": "COc1cc(/C=C/c2nc3ccccc3s2)cc(OC)c1OC", "note": "[Formula (I)(d)]", "values": [{"measurement": "GI50", "setting": "HS 578T", "value": 0.17, "unit": "nM"}, {"measurement": "CC50", "setting": "HS 578T; read-out: LC50", "value": "> 100000", "unit": "nM"}, {"measurement": "GI50", "setting": "SK-MEL-5; SK-MEL-5", "value": 0.047, "unit": "nM"}, {"measurement": "CC50", "setting": "SK-MEL-5; SK-MEL-5, read-out: LC50", "value": 34000, "unit": "nM"}, {"measurement": "GI50", "setting": "MCF7; MCF7", "value": 0.31, "unit": "nM"}, {"measurement": "CC50", "setting": "MCF7; MCF7, read-out: LC50", "value": 51500, "unit": "nM"}, {"measurement": "GI50", "setting": "A498; A498", "value": 0.041, "unit": "nM"}, {"measurement": "CC50", "setting": "A498; A498, read-out: LC50", "value": 35800, "unit": "nM"}, {"measurement": "GI50", "setting": "SK-MEL-28; SK-MEL-28", "value": 0.31, "unit": "nM"}, {"measurement": "CC50", "setting": "SK-MEL-28; SK-MEL-28, read-out: LC50", "value": 50500, "unit": "nM"}, {"measurement": "GI50", "setting": "RXF 393; RXF 393", "value": 0.14, "unit": "nM"}, {"measurement": "CC50", "setting": "RXF 393; RXF 393, read-out: LC50", "value": 97600, "unit": "nM"}, {"measurement": "GI50", "setting": "COLO 205; COLO 205", "value": 0.049, "unit": "nM"}, {"measurement": "CC50", "setting": "COLO 205; COLO 205, read-out: LC50", "value": 24600, "unit": "nM"}, {"measurement": "GI50", "setting": "OVCAR-5; OVCAR-5", "value": 0.93, "unit": "nM"}, {"measurement": "CC50", "setting": "OVCAR-5; OVCAR-5, read-out: LC50", "value": "> 100000", "unit": "nM"}, {"measurement": "GI50", "setting": "RPMI-8226; RPMI-8226", "value": 0.15, "unit": "nM"}, {"measurement": "CC50", "setting": "RPMI-8226; RPMI-8226, read-out: LC50", "value": "> 100000", "unit": "nM"}, {"measurement": "GI50", "setting": "MDA-MB-468; MDA-MB-468", "value": 0.82, "unit": "nM"}, {"measurement": "CC50", "setting": "MDA-MB-468; MDA-MB-468, read-out: LC50", "value": "> 100000", "unit": "nM"}, {"measurement": "GI50", "setting": "MDA-MB-231/ATCC; MDA-MB-231", "value": 0.71, "unit": "nM"}, {"measurement": "CC50", "setting": "MDA-MB-231/ATCC; MDA-MB-231, read-out: LC50", "value": "> 100000", "unit": "nM"}, {"measurement": "GI50", "setting": "HL-60(TB); HL-60", "value": 0.037, "unit": "nM"}, {"measurement": "CC50", "setting": "HL-60(TB); HL-60, read-out: LC50", "value": "> 100000", "unit": "nM"}, {"measurement": "GI50", "setting": "OVCAR-4; OVCAR-4", "value": 1.81, "unit": "nM"}, {"measurement": "CC50", "setting": "OVCAR-4; OVCAR-4, read-out: LC50", "value": "> 100000", "unit": "nM"}, {"measurement": "GI50", "setting": "ACHN", "value": 1.22, "unit": "nM"}, {"measurement": "CC50", "setting": "ACHN; read-out: LC50", "value": "> 100000", "unit": "nM"}, {"measurement": "GI50", "setting": "SNB-75; SNB-75", "value": 0.16, "unit": "nM"}, {"measurement": "CC50", "setting": "SNB-75; SNB-75, read-out: LC50", "value": "> 100000", "unit": "nM"}, {"measurement": "GI50", "setting": "HCC-2998; HCC 2998", "value": 2.23, "unit": "nM"}, {"measurement": "CC50", "setting": "HCC-2998; HCC 2998, read-out: LC50", "value": 63500, "unit": "nM"}, {"measurement": "GI50", "setting": "OVCAR-8; OVCAR-8", "value": 0.39, "unit": "nM"}, {"measurement": "CC50", "setting": "OVCAR-8; OVCAR-8, read-out: LC50", "value": "> 100000", "unit": "nM"}, {"measurement": "GI50", "setting": "A549/ATCC; A549", "value": 0.11, "unit": "nM"}, {"measurement": "CC50", "setting": "A549/ATCC; A549, read-out: LC50", "value": "> 100000", "unit": "nM"}, {"measurement": "GI50", "setting": "OVCAR-3; OVCAR-3", "value": 0.069, "unit": "nM"}, {"measurement": "CC50", "setting": "OVCAR-3; OVCAR-3, read-out: LC50", "value": "> 100000", "unit": "nM"}, {"measurement": "GI50", "setting": "NCI-H522", "value": 0.16, "unit": "nM"}, {"measurement": "CC50", "setting": "NCI-H522; read-out: LC50 (the source's name)", "value": 47900, "unit": "nM"}, {"measurement": "GI50", "setting": "DU-145; DU-145", "value": 0.27, "unit": "nM"}, {"measurement": "CC50", "setting": "DU-145; DU-145, read-out: LC50", "value": "> 100000", "unit": "nM"}, {"measurement": "GI50", "setting": "HOP-62; HOP-62", "value": 0.39, "unit": "nM"}, {"measurement": "CC50", "setting": "HOP-62; HOP-62, read-out: LC50", "value": 81500, "unit": "nM"}, {"measurement": "GI50", "setting": "TK-10; TK-10", "value": 11.1, "unit": "nM"}, {"measurement": "CC50", "setting": "TK-10; TK-10, read-out: LC50", "value": "> 100000", "unit": "nM"}, {"measurement": "GI50", "setting": "UACC-62; UACC-62", "value": 0.05, "unit": "nM"}, {"measurement": "CC50", "setting": "UACC-62; UACC-62, read-out: LC50", "value": 55900, "unit": "nM"}, {"measurement": "GI50", "setting": "T-47D", "value": 0.96, "unit": "nM"}, {"measurement": "CC50", "setting": "T-47D; read-out: LC50", "value": "> 100000", "unit": "nM"}, {"measurement": "GI50", "setting": "MDA-MB-435; MDA-MB-435", "value": 0.024, "unit": "nM"}, {"measurement": "CC50", "setting": "MDA-MB-435; MDA-MB-435, read-out: LC50", "value": 44600, "unit": "nM"}, {"measurement": "GI50", "setting": "SK-MEL-2; SK-MEL-2", "value": 0.064, "unit": "nM"}, {"measurement": "CC50", "setting": "SK-MEL-2; SK-MEL-2, read-out: LC50", "value": 64200, "unit": "nM"}, {"measurement": "GI50", "setting": "SF-539; SF-539", "value": 0.076, "unit": "nM"}, {"measurement": "CC50", "setting": "SF-539; SF-539, read-out: LC50", "value": 56200, "unit": "nM"}, {"measurement": "GI50", "setting": "HOP-92; HOP-92", "value": 0.036, "unit": "nM"}, {"measurement": "CC50", "setting": "HOP-92; HOP-92, read-out: LC50", "value": 77400, "unit": "nM"}, {"measurement": "GI50", "setting": "PC-3; PC-3", "value": 0.13, "unit": "nM"}, {"measurement": "CC50", "setting": "PC-3; PC-3, read-out: LC50", "value": "> 100000", "unit": "nM"}, {"measurement": "GI50", "setting": "MOLT-4; MOLT-4", "value": 1.28, "unit": "nM"}, {"measurement": "CC50", "setting": "MOLT-4; MOLT-4, read-out: LC50", "value": "> 100000", "unit": "nM"}]}
